Laboratory results published in patent US12569502B2, “Use of bile acids and derivatives thereof in preparation of GPR39 agonist” (PEKING UNIVERSITY, priority 2019, dated 2026).

Molecular target: T1, GPR39 receptors on m39-20 cell lines (Mus musculus, UniProt Q5U431, T447P)
T1 construct: P2A-mCherry (C); expressed in transfected cells
T1 sequence (Q5U431 1-456 T447P): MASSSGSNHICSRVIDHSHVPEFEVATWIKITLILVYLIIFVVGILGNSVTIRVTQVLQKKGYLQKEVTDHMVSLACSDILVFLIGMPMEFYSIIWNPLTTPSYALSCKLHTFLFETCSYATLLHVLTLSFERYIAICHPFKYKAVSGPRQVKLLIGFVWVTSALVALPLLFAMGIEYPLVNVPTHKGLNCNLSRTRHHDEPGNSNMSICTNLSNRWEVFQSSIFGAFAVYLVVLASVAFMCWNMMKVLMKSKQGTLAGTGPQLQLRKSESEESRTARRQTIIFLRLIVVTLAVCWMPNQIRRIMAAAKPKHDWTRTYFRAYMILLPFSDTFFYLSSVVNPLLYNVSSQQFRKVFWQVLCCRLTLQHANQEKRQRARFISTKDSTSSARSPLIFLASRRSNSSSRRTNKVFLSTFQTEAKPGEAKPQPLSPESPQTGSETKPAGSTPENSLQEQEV
Experiment: FLIPR calcium imaging on m39-20 cell lines stably expressing murine-derived GPR39
Type: cell-based
Settings: Bile acid + 4 μM zinc ions EC50, m39-20 cells, 4 μM zinc ions
Description: Intracellular calcium imaging is a routine technique to study cell functions, the basic principle of which is to detect the concentration of the calcium ion in tissues or cells using a calcium indicator, thereby reflecting certain reactions in the tissues or cells. In the present application, the intracellular calcium released from a cell line that stably or transiently expresses GPR39 is detected using Fluo8-AM, a calcium fluorescent indicator, so as to determine the activation of the GPR39 receptor by the bile acid and derivative thereof.
HEK293T cells (purchased from ATCC) were seeded in a 6-well plate (coming Co.) at an appropriate density (about 0.5-2×10^5/well). When the cell density reached above 30%, the plasmid PLVXK-mGPR39-P2A-mCherry was transfected with Lipofectamine 3000 (Invitrogen) at a concentration of 2 μg per well. The cells were passaged 24 hours after transfection, the puromycin (gibco) was added into the medium at a concentration of 2 μg/mL for antibiotic screening of cells. After 2-4 days of continuous screening, the cells screened for puromycin resistance were trypsinized and screened by flow cytometry for monoclones with red fluorescence. And these monoclones were seeded in a 96-well plate and cultured in a medium without puromycin for around 10 days. Cell colonies with red fluorescence were sorted under a fluorescence microscope, trypsinized and then passaged and expanded in a 6-well plate. Cell lines m39-20 stably expressing murine-derived GPR39 were obtained through the above methods.
Calcium dye Fluo8-AM (ATT bioquest Co.) was dissolved in DMSO solvent to formulate a stock solution of 1 μg/μL. […] After then, the calcium dye working solution was replaced with the 4K solution (50 μL per well), and acclimated for 5 min at room temperature for the subsequent calcium imaging experiment.
Bile acids and derivatives thereof as listed in Table 1 below were dissolved in dimethyl sulfoxide (DMSO, Sigma Co.) solvent to formulate a stock solution of 50 mM, which was stored at −20° C. During calcium imaging with FLIPR, the drug was diluted with the above 4K solution into a working concentration of 400 μM, and packaged into another 96-well plate. […] The instrument parameters were set so that 50 μL of the drug solution may be added into the culture wells within 2 s. The fluorescence recording result within the first 30 seconds was used as the baseline value. The FLIPR robot arm was programmed to automatically add bile acids and derivatives thereof into the cell sample culture wells at the 31st second. 1% of DMSO solvent was used as the blank control.
After that, the calcium dye working solution was replaced with a 4K solution containing 4 μM zinc ions (50 μL per well), followed by acclimation for 5 min at room temperature.

Row | SMILES | EC50 [µM]
1 | C[C@H](CCC(=O)NCC(=O)O)[C@H]1CC[C@H]2[C@@H]3[C@H](O)C[C@@H]4C[C@H](O)CC[C@]4(C)[C@H]3C[C@H](O)[C@]12C [GCA] | > 100
2 | C[C@H](CCC(=O)NCC(=O)O)[C@H]1CC[C@H]2[C@@H]3[C@H](O)C[C@@H]4C[C@H](OS(=O)(=O)O)CC[C@]4(C)[C@H]3CC[C@]12C [GCDCAS] | > 100
3 | C[C@H](CCC(=O)NCC(=O)O)[C@H]1CC[C@H]2[C@@H]3CC[C@@H]4C[C@H](O)CC[C@]4(C)[C@H]3C[C@H](O)[C@]12C [GDCA] | 46 ± 10.3
4 | C[C@H](CCC(=O)NCC(=O)O)[C@H]1CC[C@H]2[C@@H]3CC[C@@H]4C[C@H](OS(=O)(=O)O)CC[C@]4(C)[C@H]3C[C@H](O)[C@]12C [GDCAS] | > 100

Same assay, conditions: FIG. 1

Row | SMILES | intracellular calcium signals in m39-20 cell lines
5 | C[C@H](CCC(=O)NCC(=O)O)[C@H]1CC[C@H]2[C@@H]3[C@H](O)C[C@@H]4C[C@H](O)CC[C@]4(C)[C@H]3C[C@H](O)[C@]12C [GCA] | varying extents of intracellular calcium signals
6 | C[C@H](CCC(=O)NCC(=O)O)[C@H]1CC[C@H]2[C@@H]3[C@H](O)C[C@@H]4C[C@H](OS(=O)(=O)O)CC[C@]4(C)[C@H]3CC[C@]12C [GCDCAS] | varying extents of intracellular calcium signals
7 | C[C@H](CCC(=O)NCC(=O)O)[C@H]1CC[C@H]2[C@@H]3CC[C@@H]4C[C@H](O)CC[C@]4(C)[C@H]3C[C@H](O)[C@]12C [GDCA] | varying extents of intracellular calcium signals
8 | C[C@H](CCC(=O)NCC(=O)O)[C@H]1CC[C@H]2[C@@H]3CC[C@@H]4C[C@H](OS(=O)(=O)O)CC[C@]4(C)[C@H]3C[C@H](O)[C@]12C [GDCAS] | varying extents of intracellular calcium signals

Same assay, conditions: activation efficacy, m39-20 cells, 4 μM zinc ions

Row | SMILES | Bile acid + 4 μM zinc ions Efficacy [%]
9 | C[C@H](CCC(=O)NCC(=O)O)[C@H]1CC[C@H]2[C@@H]3[C@H](O)C[C@@H]4C[C@H](O)CC[C@]4(C)[C@H]3C[C@H](O)[C@]12C [GCA] | 20 ± 2.7
10 | C[C@H](CCC(=O)NCC(=O)O)[C@H]1CC[C@H]2[C@@H]3[C@H](O)C[C@@H]4C[C@H](OS(=O)(=O)O)CC[C@]4(C)[C@H]3CC[C@]12C [GCDCAS] | 58.6 ± 2
11 | C[C@H](CCC(=O)NCC(=O)O)[C@H]1CC[C@H]2[C@@H]3CC[C@@H]4C[C@H](O)CC[C@]4(C)[C@H]3C[C@H](O)[C@]12C [GDCA] | 86.4 ± 6.3
12 | C[C@H](CCC(=O)NCC(=O)O)[C@H]1CC[C@H]2[C@@H]3CC[C@@H]4C[C@H](OS(=O)(=O)O)CC[C@]4(C)[C@H]3C[C@H](O)[C@]12C [GDCAS] | 58.5 ± 4.8

Same assay, conditions: activation efficacy, m39-20 cells, no zinc ions

Row | SMILES | Only bile acid Efficacy [%]
13 | C[C@H](CCC(=O)NCC(=O)O)[C@H]1CC[C@H]2[C@@H]3[C@H](O)C[C@@H]4C[C@H](O)CC[C@]4(C)[C@H]3C[C@H](O)[C@]12C [GCA] | 0
14 | C[C@H](CCC(=O)NCC(=O)O)[C@H]1CC[C@H]2[C@@H]3[C@H](O)C[C@@H]4C[C@H](OS(=O)(=O)O)CC[C@]4(C)[C@H]3CC[C@]12C [GCDCAS] | 0
15 | C[C@H](CCC(=O)NCC(=O)O)[C@H]1CC[C@H]2[C@@H]3CC[C@@H]4C[C@H](O)CC[C@]4(C)[C@H]3C[C@H](O)[C@]12C [GDCA] | 7.7 ± 1.7
16 | C[C@H](CCC(=O)NCC(=O)O)[C@H]1CC[C@H]2[C@@H]3CC[C@@H]4C[C@H](OS(=O)(=O)O)CC[C@]4(C)[C@H]3C[C@H](O)[C@]12C [GDCAS] | 0

Same assay, conditions: m39-20 cells, Table 1, FIG. 2

Row | SMILES | change of activation efficacy after the addition of zinc ions
17 | C[C@H](CCC(=O)NCC(=O)O)[C@H]1CC[C@H]2[C@@H]3[C@H](O)C[C@@H]4C[C@H](O)CC[C@]4(C)[C@H]3C[C@H](O)[C@]12C [GCA] | obviously improved
18 | C[C@H](CCC(=O)NCC(=O)O)[C@H]1CC[C@H]2[C@@H]3[C@H](O)C[C@@H]4C[C@H](OS(=O)(=O)O)CC[C@]4(C)[C@H]3CC[C@]12C [GCDCAS] | obviously improved
19 | C[C@H](CCC(=O)NCC(=O)O)[C@H]1CC[C@H]2[C@@H]3CC[C@@H]4C[C@H](O)CC[C@]4(C)[C@H]3C[C@H](O)[C@]12C [GDCA] | obviously improved
20 | C[C@H](CCC(=O)NCC(=O)O)[C@H]1CC[C@H]2[C@@H]3CC[C@@H]4C[C@H](OS(=O)(=O)O)CC[C@]4(C)[C@H]3C[C@H](O)[C@]12C [GDCAS] | obviously improved

Same assay, conditions: m39-20 cells, no zinc ions; read-out: Only bile acid EC50

Row | SMILES | EC50 [µM]
21 | C[C@H](CCC(=O)NCC(=O)O)[C@H]1CC[C@H]2[C@@H]3[C@H](O)C[C@@H]4C[C@H](O)CC[C@]4(C)[C@H]3C[C@H](O)[C@]12C [GCA] | > 200
22 | C[C@H](CCC(=O)NCC(=O)O)[C@H]1CC[C@H]2[C@@H]3[C@H](O)C[C@@H]4C[C@H](OS(=O)(=O)O)CC[C@]4(C)[C@H]3CC[C@]12C [GCDCAS] | > 200
23 | C[C@H](CCC(=O)NCC(=O)O)[C@H]1CC[C@H]2[C@@H]3CC[C@@H]4C[C@H](O)CC[C@]4(C)[C@H]3C[C@H](O)[C@]12C [GDCA] | > 200
24 | C[C@H](CCC(=O)NCC(=O)O)[C@H]1CC[C@H]2[C@@H]3CC[C@@H]4C[C@H](OS(=O)(=O)O)CC[C@]4(C)[C@H]3C[C@H](O)[C@]12C [GDCAS] | > 200
